Results: patent publication US12570643B2, “3-aryloxy-3-five-membered heteroaryl propylamine compound, and crystal form and use thereof” (Shanghai Leado Pharmatech Co. Ltd., priority 2019, dated 2026)

Legend:
[1] = Neurocytotoxicity (CCK-8 cytotoxicity test); type: cell-based; conditions: human, SH-SY5Y cells
Protocol: HepG-2 and SH-SY5Y cells were prepared and placed in 10 cm dish and incubated at 37° C., 5% CO2 in a cell incubator; the cells were digested with trypsinize, resuspended and then counted. Based on a system of 100 μl/well, 8000 cells were transferred to a 96-well plate. The cells were incubated in a 37° C., 5% CO2 cell incubator for 24 hours; a gradient concentration system of compound I-1 (prepared in Example 2) was prepared, 2 times diluted, the system was 100 μl/well. The supernatant in the 96-well plate cell culture system on the first day was removed, and a fresh prepared drug concentration system was added to the corresponding culture plate wells culturing cells (set up duplicate wells). […] After completion of the culture, the supernatant was removed from the cell culture system of the 96-well plate, 100 μl of detection solution (medium containing 10% CCK-8) was add to each well, and incubated in a cell incubator at 37° C. and 5% CO2 for 1 hour, then taken it out and measured the absorbance at 450 nm with a microplate reader. Data were processed, cytotoxicity was calculated, and IC50 was calculated by GraphPad Prism. […]
A (dosing): absorbance of the well having cells, CCK-8 solution and drug solution
A (blank): absorbance of the well having medium and CCK-8 solution, without cells.
A (0 dosing): absorbance of the well having cells and CCK-8 solution, without drug solution […]

[2] = tested on: formalin pain model in mice; experiment: Formalin pain model in mice; type: in vivo, C57BL/6 mice
Excerpt: 150 C57BL/6 mice (male, 9 weeks) were randomly divided into 15 groups with 10 mice for each group, and were used for the analgesic activity test of 3 compounds in the formalin pain model in mice: the compound I-1 group (compound I-1 prepared in Example 2, its hydrochloride was used in the experiment), the S-duloxetine group (its hydrochloride was used in the experiment) and the compound C1 group (compound C1 prepared in Comparative Example 1, its hydrochloride was used in the experiment), respectively. Before the start of the experiment, the mice were allowed to adapt to the experimental environment for 72 hours, during which there was no need to fast for food or water. The tested drugs were administrated by intraperitoneal injection, and the doses were as follows: • The compound I-1 group: blank Vehicle (blank normal saline control), 0.1 mg/kg, 0.5 mg/kg, 1 mg/kg, 5 mg/kg and 10 mg/kg; • The S-duloxetine group: blank Vehicle (blank normal saline control), 1 mg/kg, 5 mg/kg, 10 mg/kg and 20 mg/kg; • The Compound C1 group: blank Vehicle (blank normal saline control), 0.1 mg/kg, 0.5 mg/kg, 1 mg/kg, 5 mg/kg and 10 mg/kg.
After the administration, the mice were placed in a transparent, ventilated plexiglass cylinder, and 1 hour later, 20 μl of 4% formalin solution was injected into the left hind foot plantar of each group of mice with a micro-injector, and foot pain response in mice were recorded in real time with a miniature camera. The length of time of licking the left foot was used as an indicator of pain response, the licking time were observed and recorded during two periods of 0-10 min (phase I) and 10-60 min (phase II) respectively, for statistical analysis, and the half effective dose (ED50) of the 3 compounds were calculated: ED50 refers to the drug dose that reduces the licking time by half compared with the blank control group. The smaller the ED50 value is, the lower the effective analgesic dose of the compound is and the better its analgesic effect is.

SNL model in rat = experiment: SNL model in rat, mechanical hyperalgesia test; type: in vivo, SD rats; conditions: 10 mg/kg intragastric, 1 hour after administration, hydrochloride used; control group 3.967 ± 0.775
Protocol: SD rats were taken for surgery, male, SPF grade, mass 150 g-180 g. The surgical procedure was performed aseptically. The animals were anesthetized with sodium pentobarbital (50 mg/kg, intraperitoneal injection). The surgical area of the waist of animals was shaved, and the skin was disinfected three times with iodophor and 70% ethanol. Start the operation after the skin was dry. A longitudinal incision was made in the posterior part of the sacral bone of the animal's waist with a scalpel to expose the left paravertebral muscles, and the muscle tissue was separated with a distractor to expose the vertebra. The left spinal nerves L5 and L6 were separated, ligated with 6-0 silk thread, and the wounds were sutured. After the surgery, the animals were placed on an electric blanket and injected subcutaneously with 5 mL normal saline to prevent dehydration. When the animal was completely awake (free to move), put the animal back into the cage.
After the surgery, the animals were adapted in the experimental environment for 15 minutes/day for 3 days.
After administration, mechanical hyperalgesia test was performed. The rats were placed individually in a plexiglas box with a grid at the bottom of the box to ensure that the feet of the rats can be tested. Rats would adapt for 15 minutes before the test. […] The rapid paw withdrawal of the animal during the test was recorded as a pain response. The paw withdrawal of the animal when the test fiber left the animal's skin was also recorded as a pain response. If the animal moved or walked, it will not be recorded as a pain response, the test should be repeated. […]
Mechanical hyperalgesia was expressed as the paw withdrawal threshold (PWT) in the behavioral test of rats, which was calculated according to the following equation: 50% response threshold (g)=(10(^Xf+kδ))/10,000 • Xf=the final test fiber value used in the test • K=table value • δ=Average difference
Data were collected using Excel software and analyzed using Prism 6.01 (Graph pad software, Inc.) software.

CNCC[C@@H](Oc1cccc2ccoc12)c1cccs1 [Compound I-1, (R)-3-(benzofuran-7-yloxy)-N-methyl-3-(thiophen-2-yl)propan-1-amine]
IC50 at 72 h [1]: ~101 µM | ED50 ([2]; Mus musculus, ip, intraperitoneal, phase II (10-60 min), dose that halves licking time vs blank control, read-out: analgesic potency ED50 in phase II pain): 0.26 mg/kg | ED50 times stronger than that of C1 compound ([2]; phase II pain, formalin model in mice): 8.5 times | PWT (SNL model in rat): 7.869 ± 2.846 g
